Results from ChEMBL document CHEMBL4387741, “Optimization of novel reversible Bruton's tyrosine kinase inhibitors identified using Tethering-fragment-based screens” (Bioorg Med Chem, 2019).

Legend:
[1] = target: Tyrosine-protein kinase Blk (Homo sapiens) (UniProt P51451); test: Inhibition of wild-type human partial length BLK (G211 to L503 residues) expressed in bacterial expression system at 1 uM by Kinomescan method relative to control
[2] = test system: Serine/threonine-protein kinase B-raf (Homo sapiens), P15056 [V600E]; test: Inhibition of human partial length BRAF V600E mutant (S429 to E741 residues) expressed in mammalian expression system at 1 uM by Kinomescan method relative to control
[3] = target: Cyclin-dependent kinase 3 (Homo sapiens) (UniProt Q00526); test: Inhibition of wild-type human full length CDK3 (M1 to H305 residues) expressed in bacterial expression system at 1 uM by Kinomescan method relative to control
[4] = target: Receptor tyrosine-protein kinase erbB-2 (Homo sapiens) (UniProt P04626); test: Inhibition of wild-type human partial length ERBB2 (K646 to V1225 residues) expressed in mammalian expression system at 1 uM by Kinomescan method relative to control
[5] = target: Mitogen-activated protein kinase 1 (Homo sapiens) (UniProt P28482); test: Inhibition of wild-type human full length ERK2 (M1 to S360 residues) expressed in bacterial expression system at 1 uM by Kinomescan method relative to control
[6] = test system: Fibroblast growth factor receptor 3 (Homo sapiens), P22607 [G697C]; test: Inhibition of human partial length FGFR3 G697C mutant (R442 to S771 residues) expressed in bacterial expression system at 1 uM by Kinomescan method relative to control
Chain of Fibroblast growth factor receptor 3 (Homo sapiens), P22607 [G697C] (P22607 whole entry G697C, the tested form may be a part): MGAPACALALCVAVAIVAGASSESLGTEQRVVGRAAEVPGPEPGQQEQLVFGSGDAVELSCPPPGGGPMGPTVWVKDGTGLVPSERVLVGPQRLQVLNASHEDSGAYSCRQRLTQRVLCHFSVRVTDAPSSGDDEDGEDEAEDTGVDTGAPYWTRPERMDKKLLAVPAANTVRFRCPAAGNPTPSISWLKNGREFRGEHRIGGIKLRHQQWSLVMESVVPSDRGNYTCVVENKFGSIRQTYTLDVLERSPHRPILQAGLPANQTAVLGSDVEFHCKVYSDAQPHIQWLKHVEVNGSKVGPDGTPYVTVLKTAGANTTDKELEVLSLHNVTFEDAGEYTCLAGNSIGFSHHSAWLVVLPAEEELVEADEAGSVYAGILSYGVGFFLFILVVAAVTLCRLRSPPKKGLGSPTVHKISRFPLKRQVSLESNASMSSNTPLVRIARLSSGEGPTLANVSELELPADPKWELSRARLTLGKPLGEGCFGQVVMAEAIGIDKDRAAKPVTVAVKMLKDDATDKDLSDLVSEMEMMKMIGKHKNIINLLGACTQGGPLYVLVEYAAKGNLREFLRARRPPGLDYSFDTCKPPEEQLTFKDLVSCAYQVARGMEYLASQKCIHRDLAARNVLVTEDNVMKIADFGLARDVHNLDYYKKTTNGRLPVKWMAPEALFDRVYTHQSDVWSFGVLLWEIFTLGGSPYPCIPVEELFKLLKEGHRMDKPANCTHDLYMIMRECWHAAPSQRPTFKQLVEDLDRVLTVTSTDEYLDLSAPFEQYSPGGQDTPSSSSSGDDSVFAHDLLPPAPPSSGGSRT

[7] = target: Rhodopsin kinase GRK1 (Homo sapiens) (UniProt Q15835); test: Inhibition of wild-type human full length GRK1 (M1 to S563 residues) expressed in mammalian expression system at 1 uM by Kinomescan method relative to control
[8] = target: Mitogen-activated protein kinase 10 (Homo sapiens) (UniProt P53779); test: Inhibition of wild-type human partial length JNK3 (V28 to Q422 residues) expressed in mammalian expression system at 1 uM by Kinomescan method relative to control
[9] = target: MAP kinase-activated protein kinase 2 (Homo sapiens) (UniProt P49137); test: Inhibition of wild-type human partial length MAPKAPK2 (V48 to D345 residues) expressed in bacterial expression system at 1 uM by Kinomescan method relative to control
[10] = target: Dual specificity mitogen-activated protein kinase kinase 6 (Homo sapiens) (UniProt P52564); test: Inhibition of wild-type human partial length MEK6 (K36 to D334 residues) expressed in bacterial expression system at 1 uM by Kinomescan method relative to control
Chain of Dual specificity mitogen-activated protein kinase kinase 6 (Homo sapiens) (P52564 whole entry, the tested form may be a part): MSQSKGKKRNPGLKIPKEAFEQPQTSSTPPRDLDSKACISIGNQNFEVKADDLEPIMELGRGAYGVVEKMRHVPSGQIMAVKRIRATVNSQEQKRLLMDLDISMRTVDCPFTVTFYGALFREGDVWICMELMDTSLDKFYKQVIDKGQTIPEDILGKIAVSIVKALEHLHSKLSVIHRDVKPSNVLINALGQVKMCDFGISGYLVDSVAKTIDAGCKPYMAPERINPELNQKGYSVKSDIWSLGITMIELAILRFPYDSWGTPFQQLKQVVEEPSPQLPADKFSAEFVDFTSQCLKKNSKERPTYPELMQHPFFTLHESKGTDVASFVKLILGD

[11] = target: Serine/threonine-protein kinase NLK (Homo sapiens) (UniProt Q9UBE8); test: Inhibition of wild-type human full length NLK (M13 to E527 residues) expressed in bacterial expression system at 1 uM by Kinomescan method relative to control
Chain of Serine/threonine-protein kinase NLK (Homo sapiens) (Q9UBE8 whole entry, the tested form may be a part): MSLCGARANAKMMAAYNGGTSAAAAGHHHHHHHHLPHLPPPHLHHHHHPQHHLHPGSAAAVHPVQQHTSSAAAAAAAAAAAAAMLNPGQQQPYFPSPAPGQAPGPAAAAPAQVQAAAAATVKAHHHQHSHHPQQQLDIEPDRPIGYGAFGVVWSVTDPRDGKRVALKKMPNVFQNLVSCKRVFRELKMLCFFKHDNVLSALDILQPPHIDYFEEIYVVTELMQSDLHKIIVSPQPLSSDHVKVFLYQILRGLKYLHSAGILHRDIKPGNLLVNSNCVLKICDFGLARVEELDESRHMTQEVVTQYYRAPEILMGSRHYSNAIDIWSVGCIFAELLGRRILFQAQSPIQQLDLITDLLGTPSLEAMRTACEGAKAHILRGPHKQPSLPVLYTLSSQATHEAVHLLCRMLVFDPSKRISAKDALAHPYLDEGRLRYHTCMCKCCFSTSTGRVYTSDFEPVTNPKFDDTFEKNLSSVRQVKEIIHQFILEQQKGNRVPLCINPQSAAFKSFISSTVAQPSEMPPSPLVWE

[12] = target: Serine/threonine-protein kinase OSR1 (Homo sapiens) (UniProt O95747); test: Inhibition of wild-type human full length OSR1 (M1 to S527 residues) expressed in mammalian expression system at 1 uM by Kinomescan method relative to control
[13] = target: Dual specificity protein kinase TTK (Homo sapiens) (UniProt P33981); test: Inhibition of wild-type human partial length TTK (N505 to V798 residues) expressed in bacterial expression system at 1 uM by Kinomescan method relative to control
[14] = target: Tyrosine-protein kinase ABL1 (Homo sapiens) (UniProt P00519); test: Inhibition of wild-type human non-phosphorylated ABL1 (S229 to K512 residues) expressed in mammalian expression system at 10 uM by Kinomescan method relative to control
Chain of Tyrosine-protein kinase ABL1 (Homo sapiens) (P00519 whole entry, the tested form may be a part): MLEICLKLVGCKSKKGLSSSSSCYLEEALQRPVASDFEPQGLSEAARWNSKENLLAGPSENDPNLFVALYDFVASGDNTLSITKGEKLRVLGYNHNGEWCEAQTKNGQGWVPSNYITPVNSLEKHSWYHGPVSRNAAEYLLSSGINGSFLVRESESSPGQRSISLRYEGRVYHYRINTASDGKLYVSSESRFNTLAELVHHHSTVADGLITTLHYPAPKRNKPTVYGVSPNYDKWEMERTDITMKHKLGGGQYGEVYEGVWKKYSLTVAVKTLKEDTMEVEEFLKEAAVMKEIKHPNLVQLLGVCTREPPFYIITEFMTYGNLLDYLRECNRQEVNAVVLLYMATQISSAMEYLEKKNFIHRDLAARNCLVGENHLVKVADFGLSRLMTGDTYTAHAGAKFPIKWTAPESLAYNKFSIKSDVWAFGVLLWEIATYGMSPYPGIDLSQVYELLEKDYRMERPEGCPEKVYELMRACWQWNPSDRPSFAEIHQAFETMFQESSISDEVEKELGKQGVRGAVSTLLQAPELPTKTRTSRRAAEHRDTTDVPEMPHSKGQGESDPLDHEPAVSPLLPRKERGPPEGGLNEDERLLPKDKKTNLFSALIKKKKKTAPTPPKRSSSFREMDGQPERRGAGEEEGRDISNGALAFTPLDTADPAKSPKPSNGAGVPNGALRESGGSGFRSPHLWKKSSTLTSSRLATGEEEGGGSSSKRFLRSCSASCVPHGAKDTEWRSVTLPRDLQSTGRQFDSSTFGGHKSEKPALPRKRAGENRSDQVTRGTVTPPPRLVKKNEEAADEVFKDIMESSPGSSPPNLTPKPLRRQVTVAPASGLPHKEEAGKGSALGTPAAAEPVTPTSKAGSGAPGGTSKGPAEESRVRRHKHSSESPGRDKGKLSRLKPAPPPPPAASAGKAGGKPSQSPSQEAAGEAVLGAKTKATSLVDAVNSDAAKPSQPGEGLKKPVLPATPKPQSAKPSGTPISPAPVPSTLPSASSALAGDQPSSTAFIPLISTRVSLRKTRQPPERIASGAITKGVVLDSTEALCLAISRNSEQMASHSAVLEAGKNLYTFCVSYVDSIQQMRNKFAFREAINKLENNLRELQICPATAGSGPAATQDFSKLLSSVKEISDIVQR

[15] = target: Dual specificity protein kinase CLK3 (Homo sapiens) (UniProt P49761); test: Inhibition of wild-type human full length CLK3 (M1 to R490 residues) expressed in bacterial expression system at 10 uM by Kinomescan method relative to control
Chain of Dual specificity protein kinase CLK3 (Homo sapiens) (P49761 whole entry, looked up, the tested form may be a part): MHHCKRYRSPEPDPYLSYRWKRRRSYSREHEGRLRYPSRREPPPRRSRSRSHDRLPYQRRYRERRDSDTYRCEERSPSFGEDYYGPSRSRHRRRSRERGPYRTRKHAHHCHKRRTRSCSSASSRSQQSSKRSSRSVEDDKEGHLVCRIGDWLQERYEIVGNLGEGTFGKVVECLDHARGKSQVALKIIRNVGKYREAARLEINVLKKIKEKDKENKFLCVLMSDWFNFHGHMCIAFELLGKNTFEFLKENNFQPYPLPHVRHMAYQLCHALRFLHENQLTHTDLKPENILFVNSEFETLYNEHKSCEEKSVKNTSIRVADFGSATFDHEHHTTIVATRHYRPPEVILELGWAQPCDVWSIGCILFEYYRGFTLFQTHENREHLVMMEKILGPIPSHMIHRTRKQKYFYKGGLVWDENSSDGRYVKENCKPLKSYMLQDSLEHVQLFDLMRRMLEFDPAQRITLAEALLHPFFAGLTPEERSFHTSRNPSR

[16] = target: Receptor tyrosine-protein kinase erbB-3 (Homo sapiens) (UniProt P21860); test: Inhibition of wild-type human partial length ERBB3 (G684 to A987 residues) expressed in mammalian expression system at 10 uM by Kinomescan method relative to control
[17] = target: Inhibitor of nuclear factor kappa-B kinase subunit epsilon (Homo sapiens) (UniProt Q14164); test: Inhibition of wild-type human full length IKK-epsilon (M1 to V716 residues) expressed in mammalian expression system at 10 uM by Kinomescan method relative to control
[18] = target: Mitogen-activated protein kinase kinase kinase kinase 5 (Homo sapiens) (UniProt Q9Y4K4); test: Inhibition of wild-type human partial length MAP4K5 (M1 to P297 residues) expressed in bacterial expression system at 10 uM by Kinomescan method relative to control
[19] = target: Cyclin-dependent kinase 14 (Homo sapiens) (UniProt O94921); test: Inhibition of wild-type human full length PFTK1 (M1 to H451 residues) expressed in bacterial expression system at 10 uM by Kinomescan method relative to control
Chain of Cyclin-dependent kinase 14 (Homo sapiens) (O94921 whole entry, the tested form may be a part, canonical isoform): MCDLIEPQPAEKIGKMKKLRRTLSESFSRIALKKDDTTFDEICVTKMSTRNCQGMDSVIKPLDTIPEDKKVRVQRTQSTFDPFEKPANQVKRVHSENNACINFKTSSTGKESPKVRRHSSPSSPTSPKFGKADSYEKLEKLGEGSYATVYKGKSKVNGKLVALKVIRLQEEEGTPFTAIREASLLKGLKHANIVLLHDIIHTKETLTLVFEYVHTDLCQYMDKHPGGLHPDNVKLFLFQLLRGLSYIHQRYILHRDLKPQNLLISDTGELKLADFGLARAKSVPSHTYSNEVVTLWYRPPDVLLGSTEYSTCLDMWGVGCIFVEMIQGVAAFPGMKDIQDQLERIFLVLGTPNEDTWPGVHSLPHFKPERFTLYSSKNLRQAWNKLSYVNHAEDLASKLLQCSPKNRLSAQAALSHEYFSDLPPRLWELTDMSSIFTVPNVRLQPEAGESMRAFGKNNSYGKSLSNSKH

[20] = test system: Phosphatidylinositol 4,5-bisphosphate 3-kinase catalytic subunit alpha isoform (Homo sapiens), P42336 [H1047L]; test: Inhibition of human partial length PIK3CA H1047L mutant (R108 to N1068 residues) expressed in mammalian expression system at 10 uM by Kinomescan method relative to control
[21] = target: Serine/threonine-protein kinase PLK4 (Homo sapiens) (UniProt O00444); test: Inhibition of wild-type human partial length PLK4 (M1 to S273 residues) expressed in mammalian expression system at 10 uM by Kinomescan method relative to control
[22] = target: Protein kinase C delta type (Homo sapiens) (UniProt Q05655); test: Inhibition of wild-type human partial length PRKCD (Q328 to D676 residues) expressed in bacterial expression system at 10 uM by Kinomescan method relative to control
[23] = target: Serine/threonine-protein kinase RIO1 (Homo sapiens) (UniProt Q9BRS2); test: Inhibition of wild-type human full length RIOK1 (M1 to K568 residues) expressed in bacterial expression system at 10 uM by Kinomescan method relative to control
[24] = target: Ribosomal protein S6 kinase alpha-5 (Homo sapiens) (UniProt O75582); test: Inhibition of wild-type human partial length C-terminal RPS6KA5 kinase domain 2 (V390 to T718 residues) expressed in bacterial expression system at 10 uM by Kinomescan method relative to control
[25] = target: Serine/threonine-protein kinase TNNI3K (Homo sapiens) (UniProt Q59H18); test: Inhibition of wild-type human full length TNNI3K (M1 to S835 residues) expressed in bacterial expression system at 10 uM by Kinomescan method relative to control
Chain of Serine/threonine-protein kinase TNNI3K (Homo sapiens) (Q59H18 whole entry, the tested form may be a part): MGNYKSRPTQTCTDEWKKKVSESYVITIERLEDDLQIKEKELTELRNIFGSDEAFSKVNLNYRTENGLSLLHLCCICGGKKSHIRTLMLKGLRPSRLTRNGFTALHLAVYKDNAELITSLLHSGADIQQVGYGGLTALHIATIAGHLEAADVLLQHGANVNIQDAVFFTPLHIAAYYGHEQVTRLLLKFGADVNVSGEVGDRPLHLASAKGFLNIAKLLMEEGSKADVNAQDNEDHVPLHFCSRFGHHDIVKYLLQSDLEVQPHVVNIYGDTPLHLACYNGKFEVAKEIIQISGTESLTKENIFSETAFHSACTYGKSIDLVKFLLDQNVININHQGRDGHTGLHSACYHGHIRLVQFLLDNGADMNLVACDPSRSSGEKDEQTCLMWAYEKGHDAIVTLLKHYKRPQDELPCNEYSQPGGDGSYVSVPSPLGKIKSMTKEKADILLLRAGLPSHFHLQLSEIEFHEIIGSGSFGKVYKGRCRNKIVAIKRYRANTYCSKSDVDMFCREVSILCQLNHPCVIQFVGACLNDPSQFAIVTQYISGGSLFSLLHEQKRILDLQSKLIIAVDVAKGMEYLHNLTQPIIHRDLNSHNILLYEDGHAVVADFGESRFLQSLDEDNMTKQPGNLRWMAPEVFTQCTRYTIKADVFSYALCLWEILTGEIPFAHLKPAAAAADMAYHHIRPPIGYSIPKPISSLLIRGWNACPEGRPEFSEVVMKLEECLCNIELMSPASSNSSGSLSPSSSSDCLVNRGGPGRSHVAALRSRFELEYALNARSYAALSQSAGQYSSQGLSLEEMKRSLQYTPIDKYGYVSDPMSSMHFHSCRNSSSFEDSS

[26] = target: Serine/threonine-protein kinase 32A (Homo sapiens) (UniProt Q8WU08); test: Inhibition of wild-type human full length YANK1 (M1 to L396 residues) expressed in mammalian expression system at 10 uM by Kinomescan method relative to control
Chain of Serine/threonine-protein kinase 32A (Homo sapiens) (Q8WU08 whole entry, the tested form may be a part): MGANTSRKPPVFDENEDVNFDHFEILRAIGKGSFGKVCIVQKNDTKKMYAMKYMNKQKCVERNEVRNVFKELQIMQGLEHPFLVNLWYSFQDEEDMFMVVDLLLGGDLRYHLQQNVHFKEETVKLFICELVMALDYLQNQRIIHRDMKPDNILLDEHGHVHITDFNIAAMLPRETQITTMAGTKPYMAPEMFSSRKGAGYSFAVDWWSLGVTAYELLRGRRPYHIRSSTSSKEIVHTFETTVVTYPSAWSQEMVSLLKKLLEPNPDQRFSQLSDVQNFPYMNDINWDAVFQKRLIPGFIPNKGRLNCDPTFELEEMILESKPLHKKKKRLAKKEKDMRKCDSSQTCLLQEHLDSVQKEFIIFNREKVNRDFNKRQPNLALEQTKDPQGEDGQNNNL

[27] = target: Serine/threonine-protein kinase 32B (Homo sapiens) (UniProt Q9NY57); test: Inhibition of wild-type human full length YANK2 (M1 to S414 residues) expressed in bacterial expression system at 10 uM by Kinomescan method relative to control

O=C(Nc1cccc([C@@H]2CN(c3ncnc4[nH]ccc34)CCN2CCO)c1)Nc1c(F)cccc1N1CCCC1
inhibition [1]: 20% | inhibition [2]: 72% | inhibition [3]: 88% | inhibition [4]: 83% | inhibition [5]: 90% | inhibition [6]: 100% | inhibition [7]: 78% | inhibition [8]: 97% | inhibition [9]: 100% | inhibition [10]: 92% | inhibition [11]: 100% | inhibition [12]: 100% | inhibition [13]: 98%

O=C(Nc1cccc([C@H]2CCCN(c3ncnc4[nH]ccc34)C2)c1)Nc1ccccc1N1CCCC1
inhibition [14]: 25% | inhibition [15]: 87% | inhibition [16]: 72% | inhibition [17]: 67% | inhibition [18]: 30% | inhibition [19]: 61% | inhibition [20]: 100% | inhibition [21]: 4.9% | inhibition [22]: 100% | inhibition [23]: 0% | inhibition [24]: 75% | inhibition [25]: 100% | inhibition [26]: 98% | inhibition [27]: 100%
